Assay results: ChEMBL document CHEMBL1129340, “New prolyl endopeptidase inhibitors: in vitro and in vivo activities of azabicyclo[2.2.2]octane, azabicyclo[2.2.1]heptane, and perhydroindole derivatives” (J Med Chem, 1996)

Experiment: Half life was evaluated
Type: ADME

half-life: 7 h
Compound: O=C([C@@H]1C2CCC(CC2)N1C(=O)[C@@H]1C[C@@H]1c1ccccc1)N1CCCC1
